# Activity calls are given as the source filed them.
# Key:
# [1] = molecular target: Voltage-dependent T-type calcium channel subunit alpha-1H (Homo sapiens, UniProt O95180); format: functional;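 also: channel activity triggered by adding a high calcium stimulation buffer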
# [2] = molecular target: T1, Calpain-2 catalytic subunit (Sus scrofa, UniProt P43367); assay: m-calpain protease blockers, concentration series – biochemical, fluorogenic peptide substrate, dose response (AID 1420); format: functional
# T1 sequence (P43367 whole entry): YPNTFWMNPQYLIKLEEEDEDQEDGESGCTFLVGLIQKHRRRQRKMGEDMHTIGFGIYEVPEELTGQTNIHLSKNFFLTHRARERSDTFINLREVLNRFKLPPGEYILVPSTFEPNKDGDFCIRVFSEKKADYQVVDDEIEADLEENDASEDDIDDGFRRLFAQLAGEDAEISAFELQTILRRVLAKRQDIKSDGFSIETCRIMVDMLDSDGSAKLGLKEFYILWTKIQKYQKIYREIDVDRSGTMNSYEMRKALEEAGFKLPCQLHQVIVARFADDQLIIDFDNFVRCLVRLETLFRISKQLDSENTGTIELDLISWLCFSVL
# [3] = M. tuberculosis H37Rv growth inhibitors, H37Rv strain (AID 1626); format: functional
# H4 = assay: Luminescence Cell-Based Dose Response HTS to Identify Activators of 5'UTR Stem-Loop Driven Prion Protein mRNA Translation in H4 Neuroglioblastoma Cells. [Related pubchem assays: 1829 (Project Summary), 1814 (Primary HTS)]; format: functional; settings: Homo sapiens
# [4] = Luminescence Cell-Based Dose Response to Identify Activators of Luciferase Translation or Activity in H4-C Neuroglioblastoma Cells. [Related pubchem assays: 1829 (Project Summary), 1814 (Primary HTS)]; format: functional
# [5] = Luminescence Cell-Based Dose Confirmation HTS to Identify Activators of 5'UTR Stem-Loop Driven Alpha-Synuclein mRNA Translation in H4 Neuroglioblastoma Cells. [Related pubchem assays: 1829 (Project Summary), 1814 (Primary HTS)]; format: functional
# [6] = Luminescence Cell-Based Dose Response to Identify Activators of 5'UTR Stem-Loop Driven Prion Protein mRNA Translation in H4-C Neuroglioblastoma Cells. [Related pubchem assays: 1829 (Project Summary), 1814 (Primary HTS)]; format: functional
# [7] = Luminescence Cell-Based Dose Confirmation to Identify Activators of 5'UTR Stem-Loop Driven Alpha-Synuclein mRNA Translation in H4 Neuroglioblastoma Cells. [Related pubchem assays: 1829 (Project Summary), 1814 (Primary HTS)]; format: functional
# [8] = Luminescence Cell-Based Dose Response HTS to Identify Activators of Luciferase Translation or Activity in H4 […] Cells. [Related pubchem assays: 1829 (Project Summary), 1814 (Primary HTS)]; format: functional
# [9] = molecular target: T2, Tyrosine-protein phosphatase non-receptor type 7 (Homo sapiens, UniProt P35236); assay: HePTP tyrosine phosphatase activity blockers – biochemical, absorbance, leukemia target, primary screen (AID 521); format: functional
# T2 sequence (P35236 whole entry): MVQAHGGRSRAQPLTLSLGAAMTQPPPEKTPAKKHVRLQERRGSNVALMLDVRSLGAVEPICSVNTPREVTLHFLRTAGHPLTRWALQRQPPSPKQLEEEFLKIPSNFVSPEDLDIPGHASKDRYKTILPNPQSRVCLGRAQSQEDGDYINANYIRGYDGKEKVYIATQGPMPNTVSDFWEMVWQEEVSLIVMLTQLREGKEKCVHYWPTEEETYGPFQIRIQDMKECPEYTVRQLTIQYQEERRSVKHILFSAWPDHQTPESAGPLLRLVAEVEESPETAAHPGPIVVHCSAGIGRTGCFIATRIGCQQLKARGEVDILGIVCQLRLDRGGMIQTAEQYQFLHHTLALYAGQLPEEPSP
# [10] = NIH3T3 cell viability loss – ATP luminescence, mouse fibroblasts, counter-screen, dose response (AID 2010); format: functional, cell-based;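 also: cells exposed to compound for about 90 hours before reading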
# cells [11] = assay: cells
# [12] = Trypanosoma cruzi growth suppression in host cells – NIH3T3 host cells, beta-gal luminescence, confirmation (AID 2044); format: functional, cell-based;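 also: intracellular parasites grown in NIH/3T3 mouse fibroblasts as host cells; luminescent beta-galactosidase reporter signal from transgenic T. cruzi replicating inside host cells; inhibitors lower the luminescence signal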
# Cytochrome P450 3A4 = Cytochrome P450 3A4 (Homo sapiens, UniProt P08684); settings: Potency;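 also: confirmatory qHTS run detecting inhibitors and substrates of CYP3A4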
# Cytochrome P450 3A4, sequence (P08684 whole entry): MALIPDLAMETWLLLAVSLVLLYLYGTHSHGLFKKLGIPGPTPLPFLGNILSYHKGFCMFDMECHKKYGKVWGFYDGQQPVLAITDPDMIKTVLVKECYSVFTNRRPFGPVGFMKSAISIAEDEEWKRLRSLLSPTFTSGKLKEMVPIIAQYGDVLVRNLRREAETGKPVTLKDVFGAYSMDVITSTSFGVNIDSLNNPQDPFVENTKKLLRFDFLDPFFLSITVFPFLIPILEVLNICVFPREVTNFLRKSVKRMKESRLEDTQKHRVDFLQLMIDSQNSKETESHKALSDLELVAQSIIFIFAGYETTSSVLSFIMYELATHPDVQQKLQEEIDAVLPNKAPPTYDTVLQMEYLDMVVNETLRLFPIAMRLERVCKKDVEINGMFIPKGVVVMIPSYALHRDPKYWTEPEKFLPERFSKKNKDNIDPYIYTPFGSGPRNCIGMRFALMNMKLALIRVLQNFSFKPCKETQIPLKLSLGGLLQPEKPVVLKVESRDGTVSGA
# cells [13] = format: functional
# [14] = Vero E6 cell cytotoxicity, dose response, cytotoxicity control for non-replicating M. tuberculosis project, secondary assay (AID 492998); format: functional, VeroE6; settings: Vero C1008
# [15] = toxicity to human hepatoma HepG2 cells – cell-based, cherry-picked samples, cytotoxicity control, dose response (AID 1159577); format: functional
# [16] = P. falciparum Dd2 growth inhibitors, dose response, SYBR Green, cherry-picked samples (AID 1159567); format: functional, cell-based
# [17] = toxicity to human HepG2 hepatoma cells – cell-based, plate reader, dry powder samples, cytotoxicity control, dose response (AID 1159569); format: functional;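 also: inhibitor potency with signal falling toward the positive control level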
# [18] = Dd2 malaria parasite growth inhibition potency – SYBR Green, dry powder samples, dose response (AID 1159566); format: functional, cell-based;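 also: potency for growth inhibition with lower SYBR green DNA signal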
# [19] = growth inhibition of yeast DHODH-expressing 3D7 parasites – SYBR Green, dry powder samples, dose response (AID 1159570); format: functional, cell-based;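 also: parasite growth measured after 72 hours of compound exposure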
# [20] = growth inhibition of PfATP4-mutant resistant parasites – NITD609-resistant line, SYBR Green, dry powder, dose response (AID 1159571); format: functional, cell-based;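 also: parasites synchronized at ring stage by sorbitol before testing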
# Voltage-dependent T-type calcium channel subunit alpha-1H, sequence (O95180 whole entry): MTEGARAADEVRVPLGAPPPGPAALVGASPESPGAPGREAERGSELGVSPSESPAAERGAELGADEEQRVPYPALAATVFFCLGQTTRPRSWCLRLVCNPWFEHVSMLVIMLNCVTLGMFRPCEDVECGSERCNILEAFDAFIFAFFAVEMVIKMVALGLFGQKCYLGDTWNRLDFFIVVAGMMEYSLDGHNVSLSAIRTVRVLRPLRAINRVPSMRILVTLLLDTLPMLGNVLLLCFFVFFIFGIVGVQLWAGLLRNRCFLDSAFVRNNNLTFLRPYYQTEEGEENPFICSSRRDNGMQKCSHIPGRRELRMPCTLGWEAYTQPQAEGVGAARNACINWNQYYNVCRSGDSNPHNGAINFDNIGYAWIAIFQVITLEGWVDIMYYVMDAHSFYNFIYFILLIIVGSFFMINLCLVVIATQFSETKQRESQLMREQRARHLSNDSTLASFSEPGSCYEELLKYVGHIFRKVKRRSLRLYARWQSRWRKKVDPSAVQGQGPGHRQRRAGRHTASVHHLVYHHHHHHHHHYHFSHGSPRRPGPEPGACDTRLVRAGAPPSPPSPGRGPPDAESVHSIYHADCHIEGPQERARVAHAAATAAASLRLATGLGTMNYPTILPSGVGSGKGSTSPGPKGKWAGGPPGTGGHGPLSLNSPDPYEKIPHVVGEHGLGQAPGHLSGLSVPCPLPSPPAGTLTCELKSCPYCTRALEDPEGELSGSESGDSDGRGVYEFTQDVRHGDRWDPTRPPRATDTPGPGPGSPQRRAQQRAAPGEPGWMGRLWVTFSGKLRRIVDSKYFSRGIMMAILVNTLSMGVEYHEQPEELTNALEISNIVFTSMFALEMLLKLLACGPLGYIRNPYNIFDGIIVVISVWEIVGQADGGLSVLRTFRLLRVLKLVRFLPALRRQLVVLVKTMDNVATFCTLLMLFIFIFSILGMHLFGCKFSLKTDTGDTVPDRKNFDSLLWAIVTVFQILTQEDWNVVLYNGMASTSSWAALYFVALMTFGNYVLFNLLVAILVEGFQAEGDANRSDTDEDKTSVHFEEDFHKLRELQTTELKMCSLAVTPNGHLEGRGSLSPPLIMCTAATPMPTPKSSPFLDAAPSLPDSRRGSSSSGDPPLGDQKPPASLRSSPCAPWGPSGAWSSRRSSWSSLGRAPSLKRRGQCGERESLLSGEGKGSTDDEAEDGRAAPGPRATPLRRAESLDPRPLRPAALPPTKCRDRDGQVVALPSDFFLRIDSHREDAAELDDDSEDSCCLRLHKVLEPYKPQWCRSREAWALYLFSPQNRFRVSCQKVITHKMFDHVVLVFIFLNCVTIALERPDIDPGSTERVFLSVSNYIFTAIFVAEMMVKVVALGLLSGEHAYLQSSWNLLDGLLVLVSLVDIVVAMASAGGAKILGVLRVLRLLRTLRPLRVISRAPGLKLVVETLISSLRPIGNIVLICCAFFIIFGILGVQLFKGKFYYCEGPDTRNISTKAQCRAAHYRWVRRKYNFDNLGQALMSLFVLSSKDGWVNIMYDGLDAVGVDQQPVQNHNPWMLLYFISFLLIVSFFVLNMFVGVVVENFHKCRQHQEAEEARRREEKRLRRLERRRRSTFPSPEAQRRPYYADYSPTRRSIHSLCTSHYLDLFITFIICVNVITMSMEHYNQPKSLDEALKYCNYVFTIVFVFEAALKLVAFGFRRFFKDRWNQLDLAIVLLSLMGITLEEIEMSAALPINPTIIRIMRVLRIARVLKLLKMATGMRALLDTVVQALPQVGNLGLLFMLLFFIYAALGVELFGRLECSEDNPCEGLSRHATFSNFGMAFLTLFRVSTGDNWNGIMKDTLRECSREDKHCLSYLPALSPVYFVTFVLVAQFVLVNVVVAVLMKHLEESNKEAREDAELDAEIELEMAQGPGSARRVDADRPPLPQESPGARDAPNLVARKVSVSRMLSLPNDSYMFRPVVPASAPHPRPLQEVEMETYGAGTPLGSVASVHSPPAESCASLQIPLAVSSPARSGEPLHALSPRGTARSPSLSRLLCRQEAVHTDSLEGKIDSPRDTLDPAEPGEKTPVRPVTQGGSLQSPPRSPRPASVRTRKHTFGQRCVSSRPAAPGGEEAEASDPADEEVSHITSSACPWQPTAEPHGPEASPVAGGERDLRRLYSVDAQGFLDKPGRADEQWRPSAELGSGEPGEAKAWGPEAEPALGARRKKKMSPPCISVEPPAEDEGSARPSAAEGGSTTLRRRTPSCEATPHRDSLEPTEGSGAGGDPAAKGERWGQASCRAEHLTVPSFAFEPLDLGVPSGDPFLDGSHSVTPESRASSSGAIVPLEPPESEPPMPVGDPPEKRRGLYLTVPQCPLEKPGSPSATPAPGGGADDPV
compound,measurement,setting,value
COc1ccccc1NC(=O)N1CCc2[nH]c3ccc(Cl)cc3c2C1,EC50,[1],11.4 µM (active)
O=C(Nc1cccnc1)c1cc2cc(Br)ccc2oc1=O,IC50,[2],17.6 µM (not active)
same,IC50,[3],> 100 µM (active)
CC(C)c1ccc(C(=O)NN2C(=O)C3CCCCC3C2=O)cc1 (configuration not stated),EC50,H4,28.8 µM (active)
same,EC50,[4],1.48 µM (active)
same,EC50,[5],< 0.1 µM (active)
same,EC50,[6],1.21 µM (active)
same,EC50,[7],1.33 µM (active)
same,EC50,[8],0.118 µM (active)
c1ccc(-n2ncc3c(N4CCC5(CC4)OCCO5)ncnc32)cc1,EC50,H4,> 120 µM (not active)
same,EC50,[4],0.364 µM (active)
same,EC50,[6],1.1 µM (active)
same,EC50,[7],0.247 µM (active)
same,EC50,[8],< 0.1 µM (active)
O=C(CCCn1c(=S)[nH]c2ccsc2c1=O)NCc1ccco1,IC50,[9],> 100 µM (not active)
CCC(=O)Nc1ccc(NC(=O)c2ccco2)c(OC)c1,IC50,[9],> 100 µM (not active)
COc1ccc(N2Cc3ccccc3C2)cc1Cl,IC50,[3],> 100 µM (active)
O=C(CCSc1ccccc1)Nc1nnc(-c2ccccc2)o1,IC50,[3],> 100 µM (active)
CC1CCc2c(sc(NC(=O)Cn3cnc([N+](=O)[O-])n3)c2C(N)=O)C1 (configuration not stated),EC50,[10],> 30 µM (not active)
same,EC50,cells [11],0.102 µM (active)
same,EC50,[12],< 0.1 µM (active)
Oc1ccc2c(c1)OCC1c3cc4c(cc3OC21)OCO4 (configuration not stated),AC50,Cytochrome P450 3A4,39.8 µM (inconclusive)
COc1ccccc1NC(=O)/C(O)=C/C(=O)c1ccccc1,IC50,cells [13],32 µM (active)
same,CC50,[14],> 20 µM (active)
CCCc1cn(CC[C@H]2CC[C@@H](NS(=O)(=O)c3ccc(-c4ccccc4)cc3)[C@@H](CO)O2)nn1,AC50,[15],> 39 µM (inactive)
same,AC50,[16],0.689 µM (active)
same,AC50,[17],47.4 µM (active)
same,AC50,[18],0.914 µM (active)
same,AC50,[19],0.963 µM (active)
same,AC50,[20],0.833 µM (active)
COc1ccc(C#Cc2ccc([C@@H]3[C@@H](CO)N4CCCCN(Cc5ccccc5F)C[C@H]34)cc2)cc1,AC50,[15],7.91 µM (active)
same,AC50,[16],0.807 µM (active)

# From ChEMBL document CHEMBL1201862, “PubChem BioAssay data set” (2004)
